Experimental findings from US5866562A, “Ring-bridged bis-quinolines” (Bayer Aktiengesellschaft, priority 1996, dated 1999) are described below.

For test [1], the target named is apamine binding sites in bovine cerebral membranes (apamine-sensitive potassium channels). In words: Binding of ^125 I-apamine to bovine cerebral membranes. The note with it: ^125 I-apamine 30 pM; calf hippocampus membranes; pH 7.4; 60 min on ice. The procedure:
1) Binding of ^125 I-apamine to bovine cerebral membranes
Calfbrains were obtained from the local abattoir. The hippocampus was prepared on ice and a membrane suspension was made up by homogenization twice in buffer (100 mM Tris-HCl, KCl 5 mM, pH 7.4) and centrifugation at 43,000×g. In a total volume of 500 μl, the incubation mixture contained 200 μg of membrane protein, 30 pM ^125 I-apamine and test substances in the concentration range 1×10^-9 to 1×10^-4 M. The non-specific binding of ^125 I-apamine was determined in the presence of 1×10^-7 M unlabelled apamine.
After preincubation for 30 min at room temperature (test substances and membrane homogenate), the samples were placed on ice for 10 min before the radioligand was added. The main incubation time was 60 min on ice. When the reaction time had elapsed, an excess of ice-cooled incubation buffer was added to each sample and the mixture was filtered with suction through cellulose acetate/nitrate membrane filters. The amount of bound ^125 I-apamine was measured with a gamma counter.

For test [2], the system named is apamine-sensitive rubidium efflux in PC12 cells (potassium channels). In words: Non-radioactive Rb+ efflux assay for the identification of potassium channel modulators. It is filed as cell-based. As to conditions: Rattus norvegicus, PC-12, 10 min, at a test concentration of 10 μM, 50 mM KCl depolarization. The method, then: 2) Non-radioactive Rb^+ efflux assay for the identification of potassium channel modulators
The potassium in PC12 cells is exchanged with rubidium, which is not present in the cells. This exchange is performed by incubating the cells over a period of 4 h in a physiological buffer containing 5.4 mM RbCl without KCl. This rubidium subsequently serves as a tracer for potassium.
The cells laden with Rb^+ in this way are washed three times and then stimulated by depolarization with 50 mM KCl to open potassium channels (10 min), causing Rb^+ to flow out of the cells into the supernatant according to the concentration gradient.
The rubidium contents in the cell supernatant and in the residual cells after they have been lysed with 1% Triton X-100 are then determined by means of atomic absorption spectroscopy. The relative proportion of rubidium in the cell supernatant (=Rb^+ efflux) is used as a measure of the potassium channel activity.
The effect of substances on the channel activity is measured by co-incubating the test substance over the ten-minute stimulation period and determining its effect on the Rb^+ efflux in the manner described above.

`c1ccc2c(N3CCCN(c4ccnc5ccccc45)CC3)ccnc2c1` [Example 1]: in test [1], the affinity corresponds to a Ki of 780 nM.

For the compound `Cc1cc(N2CCCN(c3cc(C)nc4cccc(O)c34)CC2)c2c(O)cccc2n1` [Example 7], the inhibition at 10 µM in test [2] is 58%. In test [1], `Cc1cc(N2CCCN(c3cc(C)nc4c(C)cccc34)CC2)c2cccc(C)c2n1` [Example 12] returned a Ki of 35 nM. Moreover, the inhibition at 10 µM in test [2] amounted to 73%.
